In the supplement of paper PMC10307832 one finds relative viability data, which are given here for one cell line.

Test in all cases: relative viability (nuclei count vs DMSO), 5 days (fraction); higher = more cells survive
Compound in one assay: CC(C)CCN1c2nc(Nc3cc(F)c(O)c(F)c3)ncc2N(C)C(=O)C1C [BI-D1870]
Put shortly: (§1)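 Five library-drug doses, separated by factors of √10, were pinned into 1536-well plates holding lung cancer cell lines after an overnight stay at 37 °C. Cells were fixed, permeabilised and Hoechst-stained in one step after 5 days without medium change, then imaged at 4×. Viability compares treated-well with vehicle-well nuclei, counted in MetaXpress, as a median across plates. Passing plates had control CV below 25% and at least one doubling.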

Compound in the next assay: O=c1ncccn1[C@@H]1O[C@H](CO)[C@@H](O)[C@H]1O [Zebularine]
Put shortly:
as §1

Compound in the assay “BI-D1870 + Foretinib”: CC(C)CCN1c2nc(Nc3cc(F)c(O)c(F)c3)ncc2N(C)C(=O)C1C [BI-D1870] + COc1cc2c(Oc3ccc(NC(=O)C4(C(=O)Nc5ccc(F)cc5)CC4)cc3F)ccnc2cc1OCCCN1CCOCC1 [Foretinib] (partner 0.25 µM)
Put shortly: (§2)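 A single step with final 0.05% Triton X-100, 1% formaldehyde and 1 ug/ml Hoechst fixed the cells and stained nuclei 5 days after treatment. Lung cancer cell lines in 1536-well plates had been treated by pin tool the day after seeding with one drug alone or a fixed anchor-drug dose plus five library-drug doses (not always all listed) in √10 steps, and nuclei were counted on 4× images. Relative viability is the ratio of nuclei in treated wells to nuclei in vehicle wells, taken as the median of duplicate plates.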

Compound in the assay “Zebularine + Palbociclib”: O=c1ncccn1[C@@H]1O[C@H](CO)[C@@H](O)[C@H]1O [Zebularine] + CC(=O)c1c(C)c2cnc(Nc3ccc(N4CCNCC4)cn3)nc2n(C2CCCC2)c1=O [Palbociclib] (partner 0.5 µM)
In short, it runs like this: as §2

Regarding UMC-11, the relative viability in the assay with BI-D1870 (0.04 µM) worked out at 0.972; with BI-D1870 (0.1265 µM), 0.949; with BI-D1870 (0.4 µM), 1.04; with BI-D1870 (1.265 µM), 1.02; in the assay with BI-D1870 (4 µM), 0.387; in the assay with Zebularine (1 µM), 1.1. The relative viability with Zebularine (3.162 µM) worked out at 0.824; with Zebularine (10 µM) it was 0.673; with Zebularine (31.62 µM), 0.653; with Zebularine (100 µM), 0.422; with BI-D1870 + Foretinib (first compound 0.04 µM) it was 1.1; with BI-D1870 + Foretinib (first compound 0.1265 µM), 0.986. In addition, the relative viability came out at 1.11 with BI-D1870 + Foretinib (first compound 0.4 µM); 0.897 with BI-D1870 + Foretinib (first compound 1.265 µM); 0.198 with BI-D1870 + Foretinib (first compound 4 µM); 0.329 with Zebularine + Palbociclib (first compound 1 µM); 0.315 with Zebularine + Palbociclib (first compound 3.162 µM); 0.312 in the assay with Zebularine + Palbociclib (first compound 10 µM). Also, the relative viability was 0.344 in the assay with Zebularine + Palbociclib (first compound 31.62 µM) and 0.308 in the assay with Zebularine + Palbociclib (first compound 100 µM).
